Values quoted from earlier work in PMC8172013, “Carboxylesterase Notum Is a Druggable Target to Modulate Wnt Signaling” (Journal of Medicinal Chemistry, 2021).
Read-outs that look alike come from different tables or passages of the source. Values belong to the compound of their own block, whether it stands above or below them.

Assays:
bone formation = tested on: bone formation; design: method as in PMID 19072540, PMID 19932972; details: ex vivo model of bone formation
[1] = tested on: midshaft femur cortical thickness; details: mice, 3, 10, 30 mg/kg po daily, 25 days
Notum [2] = biological target: T1, Notum (Homo sapiens, UniProt Q6P988); details: OPTS assay
T1 sequence (Q6P988 20-496): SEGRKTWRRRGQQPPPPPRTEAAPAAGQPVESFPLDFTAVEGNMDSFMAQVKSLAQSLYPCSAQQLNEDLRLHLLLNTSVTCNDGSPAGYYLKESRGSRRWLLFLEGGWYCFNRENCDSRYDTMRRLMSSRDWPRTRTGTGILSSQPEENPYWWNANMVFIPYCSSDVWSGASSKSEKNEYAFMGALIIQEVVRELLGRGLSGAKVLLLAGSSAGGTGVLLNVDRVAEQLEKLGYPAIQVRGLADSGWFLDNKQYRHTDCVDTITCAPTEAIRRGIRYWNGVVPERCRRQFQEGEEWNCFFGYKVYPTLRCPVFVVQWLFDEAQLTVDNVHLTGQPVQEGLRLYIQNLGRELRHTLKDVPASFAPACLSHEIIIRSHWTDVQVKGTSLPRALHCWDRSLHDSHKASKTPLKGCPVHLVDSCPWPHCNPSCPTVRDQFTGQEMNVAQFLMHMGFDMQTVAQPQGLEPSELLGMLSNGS

[3] = mouse, 10 mg/kg po
Notum [4] = biological target: T1, Notum; details: TCF/LEF assay
Notum [5] = biological target: T1, Notum

SMILES: CC(C)(C)NC(=O)N1CCC[C@H]1C(=O)N1CCC(NS(=O)(=O)c2ccc(S(=O)(=O)c3ccccc3)cc2C(F)(F)F)CC1 [WAY-362692]
increase in total bone area (bone formation): 75%

SMILES: O=C(O)CSc1ncnc2c(C3CC3)c(Cl)sc12 [Compound 26]
midshaft femur cortical thickness [1]: increases in midshaft femur cortical thickness at all doses tested

SMILES: O=C(C1CCN(c2ccc(Cl)c(C(F)(F)F)c2)C1)N1CC(F)(F)C1 (centres unmarked) [Compound 62]
IC50 (Notum [2]): 260 nM

SMILES: O=c1[nH]nc(C2CCN(c3ccc(Cl)c(C(F)(F)F)c3)C2)o1 (centres unmarked) [Compound 63]
IC50 (Notum [2]): 4200 nM

SMILES: O=C(c1ccc(Cl)cc1)N1CCN2C(=O)N(OC(=O)N3CCOc4ccccc43)C(=O)C2C1 (centres unmarked) [ABC101]
EC50 (Notum [4]): > 5000 nM
IC50 (Notum [5]; competitive gel-based ABPP, read-out: Notum IC50): > 10000 nM

SMILES: Cc1cc(C(=O)O)c(C)n1C1CC1 [Compound 58]
IC50 (Notum [2]): 6300 nM

SMILES: C#CCN1CCN(C(=O)ON2C(=O)C3CN(Cc4ccc(Cl)cc4)CCN3C2=O)c2ccccc21 (centres unmarked) [ABC99yne]
IC50 (Notum [5]; stated in words): sub-micromolar

The remaining lines, values ahead:

plasma exposure [3]: low plasma exposure
IC50 (Notum [2]): 2.4 nM
SMILES: Cc1c(Cl)sc2ncnc(SCC(=O)N3CC(=O)N(C)C3)c12 [Compound 40]

IC50 (Notum [2]): 150 nM
SMILES: Cc1cc(C(=O)O)c(C)n1-c1cccc(C(C)C)c1F [Compound 60]

EC50 (Notum [4]): ~100 nM
SMILES: Cc1sc2ncnc(SCC(=O)O)c2c1Cl [Compound 37]

EC50 (Notum [4]): ~100 nM
SMILES: CCCc1sc2ncnc(SCC(=O)O)c2c1Cl [Compound 38]

IC50 (Notum [2]): 190 nM
SMILES: Cc1csc2c(SCC(=O)O)ncnc12 [Compound 36]
